Blank lines part the entries; values can stand above or below the molecule they belong to. The source made the active and inactive calls.
Tests used:
HeLa = test: HeLa cell cytotoxicity, dose response, cytotoxicity control, 24 h, cherry-picked samples (AID 504726); assay type: functional, cell-based; details: Homo sapiens;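 note: potency for cytotoxicity as loss of luminescence signal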
[1] = molecular target: Serine/threonine-protein kinase PLK4 (Homo sapiens, UniProt O00444); assay type: functional;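 note: PLK4 measured as one member of a kinome-wide kinase profiling panel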
Sequence of Serine/threonine-protein kinase PLK4 (O00444 whole entry): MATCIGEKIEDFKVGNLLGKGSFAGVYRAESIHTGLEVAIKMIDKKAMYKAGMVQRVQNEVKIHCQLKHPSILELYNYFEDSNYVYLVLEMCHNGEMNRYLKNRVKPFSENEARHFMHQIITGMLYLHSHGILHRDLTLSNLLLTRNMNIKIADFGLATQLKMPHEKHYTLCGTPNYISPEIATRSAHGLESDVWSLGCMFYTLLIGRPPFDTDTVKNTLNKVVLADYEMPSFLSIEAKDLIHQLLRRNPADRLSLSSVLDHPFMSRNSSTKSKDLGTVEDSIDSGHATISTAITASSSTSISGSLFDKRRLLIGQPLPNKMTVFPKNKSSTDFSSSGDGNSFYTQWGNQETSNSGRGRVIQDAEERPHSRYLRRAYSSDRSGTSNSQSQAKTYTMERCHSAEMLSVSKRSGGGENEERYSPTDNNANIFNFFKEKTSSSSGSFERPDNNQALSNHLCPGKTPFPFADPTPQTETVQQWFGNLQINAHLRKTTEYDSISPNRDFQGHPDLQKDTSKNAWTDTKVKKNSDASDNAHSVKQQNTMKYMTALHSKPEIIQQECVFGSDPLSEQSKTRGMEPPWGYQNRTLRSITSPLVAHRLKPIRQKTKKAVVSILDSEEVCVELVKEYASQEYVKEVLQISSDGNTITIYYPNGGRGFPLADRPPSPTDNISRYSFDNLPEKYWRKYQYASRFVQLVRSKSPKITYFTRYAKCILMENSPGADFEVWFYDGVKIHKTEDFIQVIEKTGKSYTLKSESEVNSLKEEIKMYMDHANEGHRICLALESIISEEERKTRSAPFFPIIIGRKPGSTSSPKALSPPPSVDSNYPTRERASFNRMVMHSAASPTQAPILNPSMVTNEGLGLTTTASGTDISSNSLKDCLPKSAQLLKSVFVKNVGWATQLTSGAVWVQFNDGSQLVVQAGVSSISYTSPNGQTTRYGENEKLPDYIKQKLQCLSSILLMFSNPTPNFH

[2] = molecular target: MAP kinase-activated protein kinase 2 (Homo sapiens, UniProt P49137); assay type: functional;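 note: measured as one member of a kinome-wide kinase panel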
Sequence of MAP kinase-activated protein kinase 2 (P49137 whole entry): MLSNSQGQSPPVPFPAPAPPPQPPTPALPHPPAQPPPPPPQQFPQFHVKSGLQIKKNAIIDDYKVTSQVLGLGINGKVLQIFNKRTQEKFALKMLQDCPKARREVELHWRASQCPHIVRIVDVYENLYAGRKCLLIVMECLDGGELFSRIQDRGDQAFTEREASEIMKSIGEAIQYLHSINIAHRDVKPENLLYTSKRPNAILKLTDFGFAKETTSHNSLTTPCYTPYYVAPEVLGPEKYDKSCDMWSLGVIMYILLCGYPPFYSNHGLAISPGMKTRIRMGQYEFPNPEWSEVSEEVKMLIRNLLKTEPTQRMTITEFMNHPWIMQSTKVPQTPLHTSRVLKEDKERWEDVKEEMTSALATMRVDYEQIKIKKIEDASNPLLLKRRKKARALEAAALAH

[3] = molecular target: Mast/stem cell growth factor receptor Kit (Homo sapiens, UniProt P10721); assay type: functional;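 note: KIT entry within a kinase panel assay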
[4] = molecular target: Tyrosine-protein kinase Srms (Homo sapiens, UniProt Q9H3Y6); assay type: functional;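 note: SRMS measured as one member of a kinome-wide kinase profiling panel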
[5] = molecular target: Glycogen synthase kinase-3 alpha (Homo sapiens, UniProt P49840); assay type: functional;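 note: GSK3A result taken from a broad kinome-wide kinase panel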
Sequence of Glycogen synthase kinase-3 alpha (P49840 whole entry): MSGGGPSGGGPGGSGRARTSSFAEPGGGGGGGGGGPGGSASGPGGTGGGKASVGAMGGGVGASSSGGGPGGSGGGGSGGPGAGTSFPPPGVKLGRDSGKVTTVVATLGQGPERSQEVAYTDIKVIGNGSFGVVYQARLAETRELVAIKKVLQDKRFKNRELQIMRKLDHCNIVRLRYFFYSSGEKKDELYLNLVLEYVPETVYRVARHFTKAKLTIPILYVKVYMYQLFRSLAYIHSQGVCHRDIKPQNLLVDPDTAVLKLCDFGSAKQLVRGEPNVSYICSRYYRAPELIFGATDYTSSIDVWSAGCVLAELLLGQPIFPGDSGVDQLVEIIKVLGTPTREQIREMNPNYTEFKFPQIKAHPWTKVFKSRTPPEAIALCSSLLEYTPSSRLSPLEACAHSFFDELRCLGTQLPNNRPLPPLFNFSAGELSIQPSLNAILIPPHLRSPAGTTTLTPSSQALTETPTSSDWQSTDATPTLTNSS

[6] = molecular target: Vascular endothelial growth factor receptor 3 (Homo sapiens, UniProt P35916); assay type: functional;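 note: value from a kinome-wide profiling panel, with FLT4 as the panel member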
Sequence of Vascular endothelial growth factor receptor 3 (P35916 whole entry, the tested form may be a part): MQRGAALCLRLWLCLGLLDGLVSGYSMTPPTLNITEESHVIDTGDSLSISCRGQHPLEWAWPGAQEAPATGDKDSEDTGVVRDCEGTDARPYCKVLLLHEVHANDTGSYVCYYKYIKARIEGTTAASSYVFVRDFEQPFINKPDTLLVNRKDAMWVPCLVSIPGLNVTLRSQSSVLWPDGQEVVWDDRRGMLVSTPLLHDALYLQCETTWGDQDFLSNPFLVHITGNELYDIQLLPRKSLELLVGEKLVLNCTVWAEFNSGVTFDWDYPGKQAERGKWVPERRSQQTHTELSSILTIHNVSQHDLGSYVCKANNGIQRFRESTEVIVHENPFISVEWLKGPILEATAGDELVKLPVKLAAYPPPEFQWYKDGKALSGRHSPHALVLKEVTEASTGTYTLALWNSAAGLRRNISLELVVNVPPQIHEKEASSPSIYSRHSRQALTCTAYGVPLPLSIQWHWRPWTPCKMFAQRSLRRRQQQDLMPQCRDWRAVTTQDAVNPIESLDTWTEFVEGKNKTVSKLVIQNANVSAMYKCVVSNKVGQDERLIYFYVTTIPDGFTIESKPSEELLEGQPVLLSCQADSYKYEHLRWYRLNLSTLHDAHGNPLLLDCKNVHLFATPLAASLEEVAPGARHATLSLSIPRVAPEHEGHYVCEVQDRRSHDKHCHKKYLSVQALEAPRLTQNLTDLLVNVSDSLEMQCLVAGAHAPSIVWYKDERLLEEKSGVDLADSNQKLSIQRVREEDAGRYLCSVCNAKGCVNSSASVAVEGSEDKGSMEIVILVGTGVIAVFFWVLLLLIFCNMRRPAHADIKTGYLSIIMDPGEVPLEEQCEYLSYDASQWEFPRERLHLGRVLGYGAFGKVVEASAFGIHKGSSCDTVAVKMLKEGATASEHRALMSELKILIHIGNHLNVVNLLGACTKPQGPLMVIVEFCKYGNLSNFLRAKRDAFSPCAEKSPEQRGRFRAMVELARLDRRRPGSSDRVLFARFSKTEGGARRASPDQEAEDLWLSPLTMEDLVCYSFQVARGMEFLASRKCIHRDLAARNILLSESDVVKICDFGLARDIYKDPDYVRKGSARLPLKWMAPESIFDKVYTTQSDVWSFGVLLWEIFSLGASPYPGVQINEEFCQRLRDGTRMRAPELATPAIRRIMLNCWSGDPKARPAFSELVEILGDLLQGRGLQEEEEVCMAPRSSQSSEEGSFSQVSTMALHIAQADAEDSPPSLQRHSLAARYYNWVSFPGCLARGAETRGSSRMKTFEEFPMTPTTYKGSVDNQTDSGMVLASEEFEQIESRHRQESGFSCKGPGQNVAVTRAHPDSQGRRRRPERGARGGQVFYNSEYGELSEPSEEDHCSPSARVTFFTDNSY

[7] = molecular target: NACHT, LRR and PYD domains-containing protein 3 (Homo sapiens, UniProt Q96P20); test: NALP3 inhibitors in yeast, dose response, luminescent (AID 488799); assay type: functional
[8] = molecular target: T1, Apoptotic protease-activating factor 1 (Homo sapiens, UniProt O14727); assay type: functional
T1 sequence (O14727 whole entry): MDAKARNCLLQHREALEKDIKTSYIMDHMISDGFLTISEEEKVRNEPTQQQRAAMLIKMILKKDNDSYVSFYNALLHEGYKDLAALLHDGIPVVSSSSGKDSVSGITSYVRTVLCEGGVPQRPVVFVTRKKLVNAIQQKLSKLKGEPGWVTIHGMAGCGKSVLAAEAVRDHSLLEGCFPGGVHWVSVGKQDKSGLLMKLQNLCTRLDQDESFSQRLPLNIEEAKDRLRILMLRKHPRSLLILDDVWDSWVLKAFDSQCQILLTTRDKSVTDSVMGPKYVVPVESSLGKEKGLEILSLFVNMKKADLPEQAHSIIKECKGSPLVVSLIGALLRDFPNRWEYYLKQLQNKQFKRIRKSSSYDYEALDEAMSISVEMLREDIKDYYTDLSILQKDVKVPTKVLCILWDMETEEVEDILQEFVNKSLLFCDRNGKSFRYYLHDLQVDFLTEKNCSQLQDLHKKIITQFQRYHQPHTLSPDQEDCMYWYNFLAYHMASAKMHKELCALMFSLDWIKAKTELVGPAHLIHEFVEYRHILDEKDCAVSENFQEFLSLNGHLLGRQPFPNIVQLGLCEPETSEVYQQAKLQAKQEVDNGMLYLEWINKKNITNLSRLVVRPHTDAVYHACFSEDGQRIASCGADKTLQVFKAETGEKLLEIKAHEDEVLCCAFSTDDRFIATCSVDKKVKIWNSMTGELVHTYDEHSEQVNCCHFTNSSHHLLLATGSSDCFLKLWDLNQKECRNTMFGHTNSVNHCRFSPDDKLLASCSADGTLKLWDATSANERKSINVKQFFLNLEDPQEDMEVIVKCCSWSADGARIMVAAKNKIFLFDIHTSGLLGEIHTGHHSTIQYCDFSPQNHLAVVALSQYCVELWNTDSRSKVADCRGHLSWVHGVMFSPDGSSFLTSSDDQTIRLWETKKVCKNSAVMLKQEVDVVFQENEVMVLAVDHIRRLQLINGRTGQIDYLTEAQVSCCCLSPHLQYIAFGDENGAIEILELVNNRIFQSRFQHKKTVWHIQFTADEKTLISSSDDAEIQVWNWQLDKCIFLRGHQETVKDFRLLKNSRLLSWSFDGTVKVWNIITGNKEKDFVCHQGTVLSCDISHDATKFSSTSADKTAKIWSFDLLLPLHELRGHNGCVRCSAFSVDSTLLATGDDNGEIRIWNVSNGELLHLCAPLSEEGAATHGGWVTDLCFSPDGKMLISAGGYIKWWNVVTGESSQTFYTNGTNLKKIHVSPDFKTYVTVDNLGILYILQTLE

[9] = growth suppression of PTEN-null colon cells, dose response, cell-based, HCT116 PTEN knockout (AID 1047); assay type: functional;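 note: HCT116 colon tumor cells with PTEN knocked out; cells exposed to compound for 60 hours before readout; potency for loss of cell viability measured by luminescence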
[10] = growth suppression of beta-catenin-knockout colon cells, dose response, cell-based, HCT116, human colon tumor (AID 1045); assay type: functional;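 note: HCT116 colon tumor cells with beta catenin knocked out; cells exposed to compound for 60 hours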
[11] = molecular target: DNA dC->dU-editing enzyme APOBEC-3A (Homo sapiens, UniProt P31941); test: APOBEC3A DNA deaminase inhibitors, dose response, biochemical (AID 504722); assay type: functional
Sequence of DNA dC->dU-editing enzyme APOBEC-3A (P31941 whole entry): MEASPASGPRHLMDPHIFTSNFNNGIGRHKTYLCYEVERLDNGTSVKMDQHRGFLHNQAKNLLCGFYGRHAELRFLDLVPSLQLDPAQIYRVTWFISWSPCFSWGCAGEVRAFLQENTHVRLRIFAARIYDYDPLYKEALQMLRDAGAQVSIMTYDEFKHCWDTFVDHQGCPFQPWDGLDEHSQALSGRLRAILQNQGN

[12] = molecular target: SWI/SNF-related matrix-associated actin-dependent regulator of chromatin subfamily A member 2 (Homo sapiens, UniProt P51531); test: Luminescence-based cell-based high throughput dose response assay to identify activators of the function of SWI/SNF related, matrix associated, actin dependent regulator of chromatin, subfamily a, member 2 (SMARCA2, BRM).; assay type: functional
Sequence of SWI/SNF-related matrix-associated actin-dependent regulator of chromatin subfamily A member 2 (P51531 whole entry): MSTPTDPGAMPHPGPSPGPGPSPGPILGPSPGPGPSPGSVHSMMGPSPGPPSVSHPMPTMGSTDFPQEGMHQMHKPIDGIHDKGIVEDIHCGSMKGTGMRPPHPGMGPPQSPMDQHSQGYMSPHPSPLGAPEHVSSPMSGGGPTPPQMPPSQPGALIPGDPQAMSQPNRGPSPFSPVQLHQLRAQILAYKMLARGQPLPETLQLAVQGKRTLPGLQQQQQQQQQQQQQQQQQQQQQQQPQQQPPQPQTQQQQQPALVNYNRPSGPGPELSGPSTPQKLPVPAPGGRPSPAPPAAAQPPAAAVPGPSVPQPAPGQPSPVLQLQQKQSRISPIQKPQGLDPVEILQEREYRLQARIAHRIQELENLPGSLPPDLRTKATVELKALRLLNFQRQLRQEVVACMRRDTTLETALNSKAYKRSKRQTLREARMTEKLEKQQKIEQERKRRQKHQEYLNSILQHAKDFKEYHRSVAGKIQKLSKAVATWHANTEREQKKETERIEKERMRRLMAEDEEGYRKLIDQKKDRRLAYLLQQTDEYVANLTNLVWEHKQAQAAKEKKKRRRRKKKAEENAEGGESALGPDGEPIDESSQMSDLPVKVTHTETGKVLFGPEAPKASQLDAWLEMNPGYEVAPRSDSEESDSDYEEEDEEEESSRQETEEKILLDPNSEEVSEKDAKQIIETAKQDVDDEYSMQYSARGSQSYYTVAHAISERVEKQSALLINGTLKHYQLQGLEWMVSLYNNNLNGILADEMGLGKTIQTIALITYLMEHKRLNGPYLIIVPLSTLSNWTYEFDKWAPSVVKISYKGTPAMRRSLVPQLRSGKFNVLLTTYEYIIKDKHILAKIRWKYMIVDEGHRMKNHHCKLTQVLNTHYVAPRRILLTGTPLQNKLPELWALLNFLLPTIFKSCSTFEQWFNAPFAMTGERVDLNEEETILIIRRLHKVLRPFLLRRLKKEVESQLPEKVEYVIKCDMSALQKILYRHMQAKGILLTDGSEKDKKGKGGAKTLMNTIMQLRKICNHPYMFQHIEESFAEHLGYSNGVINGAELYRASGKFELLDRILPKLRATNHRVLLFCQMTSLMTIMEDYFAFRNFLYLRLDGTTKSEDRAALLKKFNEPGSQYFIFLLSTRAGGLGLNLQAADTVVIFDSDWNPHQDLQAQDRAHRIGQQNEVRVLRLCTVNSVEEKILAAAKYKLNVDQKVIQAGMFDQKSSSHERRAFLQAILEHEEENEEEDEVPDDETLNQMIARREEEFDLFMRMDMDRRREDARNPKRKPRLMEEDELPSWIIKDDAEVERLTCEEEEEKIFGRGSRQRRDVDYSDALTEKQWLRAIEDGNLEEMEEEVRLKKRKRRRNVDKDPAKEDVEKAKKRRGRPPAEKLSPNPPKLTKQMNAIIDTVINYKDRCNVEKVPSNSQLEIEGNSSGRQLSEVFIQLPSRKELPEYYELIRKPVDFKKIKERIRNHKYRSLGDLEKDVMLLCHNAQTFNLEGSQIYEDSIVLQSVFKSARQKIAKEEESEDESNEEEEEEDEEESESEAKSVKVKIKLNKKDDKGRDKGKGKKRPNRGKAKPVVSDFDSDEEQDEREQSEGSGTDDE

SMILES: N/C(=N\N=C/c1ccc(-c2ccc(O)c(C(=O)O)c2)o1)N[N+](=O)[O-]
- AC50 (HeLa): 151 µM (active)

- Ki [1]: 0.251 µM (active)
- Ki [2]: > 7.94 µM (inactive)
- Ki [3]: > 1.26 µM (inactive)
- Ki [4]: > 1.58 µM (inactive)
- Ki [5]: > 7.94 µM (inactive)
- Ki [6]: 0.158 µM (active)
SMILES: Cc1cccc(NC(=O)Nc2ccc3c(c2)CCc2sc4ncnc(N)c4c2-3)c1

SMILES: CC(=O)N(/N=C1\Sc2ccccc2C1=O)c1ccccc1C
- IC50 [7]: 8.34 µM (active)
- IC50 [8]: 5.13 µM (active)

SMILES: Cc1ccc(-n2sc3ccccc3c2=O)cc1
- EC50 [9]: 31.1 µM (active)
- EC50 [10]: 24.4 µM (active)
- IC50 [11]: > 100 µM (inactive)
- EC50 [12]: > 91.2 µM (inactive)
